Test results reported in patent US10251892B2, “Bicyclic heterocycles as FGFR4 inhibitors” (Incyte Corporation, priority 2015, dated 2019).

Experiments:
FGFR4 = FGFR4 (Homo sapiens (Human), UniProt P22455); test: FGFR Enzymatic Assay (peptide phosphorylation, FRET), FGFR4; format: biochemical
Method: (§1) The inhibitor potency of the exemplified compounds was measured in an enzyme assay that measures peptide phosphorylation using FRET measurements to detect product formation. Inhibitors were serially diluted in DMSO and a volume of 0.5 μL was transferred to the wells of a 384-well plate.
The enzymes were purchased from Millipore or Invitrogen.
(§2) GraphPad prism3 was used to analyze the data.

FGFR3 enzyme = FGFR3 enzyme (Homo sapiens (Human), UniProt P22607); test: FGFR Enzymatic Assay (peptide phosphorylation, FRET), FGFR3; format: biochemical; settings: IC50 ratio showing FGFR3 selectivity; pre-incubated for 4 hours
Method: as §1, §2

[1] = IC50 ratio showing FGFR4 selectivity, pre-incubated for 4 hours
[2] = ratio of IC50 data showing FGFR4 selectivity, pre-incubated for 5 to 10 minutes

Chain of FGFR3 enzyme (P22607 23-806): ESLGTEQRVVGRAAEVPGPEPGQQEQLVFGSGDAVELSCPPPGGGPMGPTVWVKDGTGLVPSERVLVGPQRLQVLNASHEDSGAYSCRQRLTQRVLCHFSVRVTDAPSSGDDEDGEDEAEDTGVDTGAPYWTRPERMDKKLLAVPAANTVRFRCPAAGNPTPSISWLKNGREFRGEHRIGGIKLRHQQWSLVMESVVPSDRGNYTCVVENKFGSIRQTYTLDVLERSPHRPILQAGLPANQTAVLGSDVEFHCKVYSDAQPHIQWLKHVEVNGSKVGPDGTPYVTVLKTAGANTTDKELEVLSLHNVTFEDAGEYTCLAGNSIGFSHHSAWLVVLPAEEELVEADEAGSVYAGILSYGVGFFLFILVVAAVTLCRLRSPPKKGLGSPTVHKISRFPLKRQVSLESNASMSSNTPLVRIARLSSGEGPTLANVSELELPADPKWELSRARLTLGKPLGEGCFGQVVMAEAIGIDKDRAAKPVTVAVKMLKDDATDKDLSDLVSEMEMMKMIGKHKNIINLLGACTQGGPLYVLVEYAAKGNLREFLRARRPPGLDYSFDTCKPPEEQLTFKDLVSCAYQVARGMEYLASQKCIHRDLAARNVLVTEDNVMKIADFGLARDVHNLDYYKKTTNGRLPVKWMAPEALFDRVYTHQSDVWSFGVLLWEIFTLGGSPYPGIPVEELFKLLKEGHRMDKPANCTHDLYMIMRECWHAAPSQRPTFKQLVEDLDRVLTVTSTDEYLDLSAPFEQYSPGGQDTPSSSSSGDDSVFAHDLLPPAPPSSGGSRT
Chain of FGFR4 (P22455 22-802): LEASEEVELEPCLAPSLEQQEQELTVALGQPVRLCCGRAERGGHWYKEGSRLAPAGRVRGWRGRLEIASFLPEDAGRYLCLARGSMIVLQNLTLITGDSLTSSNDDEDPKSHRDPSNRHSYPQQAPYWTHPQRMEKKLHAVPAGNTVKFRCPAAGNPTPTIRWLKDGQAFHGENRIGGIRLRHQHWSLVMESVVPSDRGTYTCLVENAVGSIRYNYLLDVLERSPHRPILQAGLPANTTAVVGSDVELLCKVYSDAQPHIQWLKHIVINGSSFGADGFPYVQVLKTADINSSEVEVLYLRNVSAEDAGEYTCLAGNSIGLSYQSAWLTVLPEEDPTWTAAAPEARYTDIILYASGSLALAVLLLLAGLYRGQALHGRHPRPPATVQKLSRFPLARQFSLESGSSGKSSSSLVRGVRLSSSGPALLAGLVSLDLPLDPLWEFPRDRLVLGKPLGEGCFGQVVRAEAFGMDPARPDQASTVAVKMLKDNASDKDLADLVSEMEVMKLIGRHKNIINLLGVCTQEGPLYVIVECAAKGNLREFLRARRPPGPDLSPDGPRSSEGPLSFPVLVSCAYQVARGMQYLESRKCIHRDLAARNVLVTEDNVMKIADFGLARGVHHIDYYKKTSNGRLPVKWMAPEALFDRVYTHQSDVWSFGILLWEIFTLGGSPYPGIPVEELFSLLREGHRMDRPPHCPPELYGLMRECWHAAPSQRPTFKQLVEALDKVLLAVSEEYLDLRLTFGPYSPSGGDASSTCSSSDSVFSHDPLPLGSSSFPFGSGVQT

FGFR1/FGFR4 (FGFR4; [1])	FGFR2/FGFR4 (FGFR4; [1])	FGFR3/FGFR4 (FGFR4; [1])	FGFR4/FGFR3 (FGFR3 enzyme)	SMILES	FGFR1/FGFR4 (FGFR4; [2])	FGFR2/FGFR4 (FGFR4; [2])	FGFR3/FGFR4 (FGFR4; [2])	FGFR1/FGFR3 (FGFR3 enzyme)
>25	>25	>10	–	COc1cc(OC)c(F)c(N2Cc3cnc(-c4cc(N)ccc4C#N)cc3C3(CC3)C2=O)c1F [Example 3, 4-amino-2-(2′-(2,6-difluoro-3,5-dimethoxyphenyl)-3′-oxo-2′,3′-dihydro-1′H-spiro[cyclopropane-1,4′-[2,7]naphthyridine]-6′-yl)benzonitrile]	>25	>25	>25	–
>100	>100	>50	–	COc1cc(OC)c(F)c(N2Cc3cnc(-c4nn(CC5CCOCC5)cc4C#N)cc3C3(CC3)C2=O)c1F [Example 173, 3-(2′-(2,6-difluoro-3,5-dimethoxyphenyl)-3′-oxo-2′,3′-dihydro-1′H-spiro[cyclopropane-1,4′-[2,7]naphthyridine]-6′-yl)-1-((tetrahydro-2H-pyran-4-yl)methyl)-1H-pyrazole-4-carbonitrile]	–	–	–	–
>50	>25	>10	–	COc1cc(OC)c(F)c(N2Cc3cnc(-c4cncc(NS(C)(=O)=O)c4)cc3C3(CC3)C2=O)c1F [Example 15, N-(5-(2′-(2,6-difluoro-3,5-dimethoxyphenyl)-3′-oxo-2′,3′-dihydro-1′H-spiro[cyclopropane-1,4′-[2,7]naphthyridine]-6′-yl)pyridin-3-yl)methanesulfonamide]	>50	>25	>10	>3
>50	>25	>25	–	COc1cc(OC)c(F)c(N2Cc3cnc(-c4cc(N)cnc4C)cc3C3(CC3)C2=O)c1F [Example 7, 6′-(5-amino-2-methylpyridin-3-yl)-2′-(2,6-difluoro-3,5-dimethoxyphenyl)-1′H-spiro[cyclopropane-1,4′-[2,7]naphthyridin]-3′(2′H)-one]	>25	>10	>10	>1
>100	>10	>25	–	COc1cc(OC)c(F)c(N2Cc3cnc(-c4nn(CC#N)cc4C#N)cc3C3(CC3)C2=O)c1F [Example 174, 1-(cyanomethyl)-3-(2′-(2,6-difluoro-3,5-dimethoxyphenyl)-3′-oxo-2′,3′-dihydro-1′H-spiro[cyclopropane-1,4′-[2,7]naphthyridine]-6′-yl)-1H-pyrazole-4-carbonitrile]	–	–	–	–
>10	>1	>1	–	COc1cc(OC)c(F)c(N2Cc3cnc(-c4cccnc4)cc3C3(CC3)C2=O)c1F [Example 9, 2′-(2,6-difluoro-3,5-dimethoxyphenyl)-6′-(pyridin-3-yl)-1′H-spiro[cyclopropane-1,4′-[2,7]naphthyridin]-3′(2′H)-one]	>5	>1	>1	>3
>50	>25	>10	–	COc1cc(OC)c(F)c(N2Cc3cnc(-c4nn(C)cc4C#N)cc3C3(CC3)C2=O)c1F [Example 172, 3-(2′-(2,6-difluoro-3,5-dimethoxyphenyl)-3′-oxo-2′,3′-dihydro-1′H-spiro[cyclopropane-1,4′-[2,7]naphthyridine]-6′-yl)-1-methyl-1H-pyrazole-4-carbonitrile]	–	–	–	–
>25	>25	>25	–	COc1cc(OC)c(F)c(N2Cc3cnc(-c4cc(N)ccc4C)cc3C3(CC3)C2=O)c1F [Example 1, 6′-(5-amino-2-methylphenyl)-2′-(2,6-difluoro-3,5-dimethoxyphenyl)-1′H-spiro[cyclopropane-1,4′-[2,7]naphthyridin]-3′(2′H)-one]	>25	>25	>50	–
>50	>10	>10	–	COc1cc(OC)c(F)c(N2Cc3cnc(-c4cncc(C#N)c4)cc3C3(CC3)C2=O)c1F [Example 8, 5-(2′-(2,6-difluoro-3,5-dimethoxyphenyl)-3′-oxo-2′,3′-dihydro-1′H-spiro[cyclopropane-1,4′-[2,7]naphthyridine]-6′-yl)nicotinonitrile]	>50	>10	>10	>5
>10	>10	>10	–	COc1cc(OC)c(F)c(N2Cc3cnc(-c4cc(N)c(F)cc4C)cc3C3(CC3)C2=O)c1F [Example 2, 6′-(5-amino-4-fluoro-2-methylphenyl)-2′-(2,6-difluoro-3,5-dimethoxyphenyl)-1′H-spiro[cyclopropane-1,4′-[2,7]naphthyridin]-3′(2′H)-one]	>10	>10	>10	–
>10	>10	>10	–	COc1cc(OC)c(F)c(N2Cc3cnc(-c4[nH]ncc4C#N)cc3C3(CC3)C2=O)c1F [Example 171, 5-(2′-(2,6-difluoro-3,5-dimethoxyphenyl)-3′-oxo-2′,3′-dihydro-1′H-spiro[cyclopropane-1,4′-[2,7]naphthyridine]-6′-yl)-1H-pyrazole-4-carbonitrile]	–	–	–	–
–	–	–	>10	CCn1cc(N2C(=O)N(c3c(F)c(OC)cc(OC)c3F)Cc3cnc(-c4cn(C)nc4C)cc32)cn1 [Example 131, 3-(2,6-difluoro-3,5-dimethoxyphenyl)-7-(1,3-dimethyl-1H-pyrazol-4-yl)-1-(1-ethyl-1H-pyrazol-4-yl)-3,4-dihydropyrido[4,3-d]pyrimidin-2(1H)-one]	–	–	–	>3
–	–	–	>1	CCN1C(=O)N(c2c(F)c(OC)cc(OC)c2F)Cc2cnc(-c3cn(CCN4CCOCC4)nc3C)cc21 [Example 49, 3-(2,6-difluoro-3,5-dimethoxyphenyl)-1-ethyl-7-(3-methyl-1-(2-morpholinoethyl)-1H-pyrazol-4-yl)-3,4-dihydropyrido[4,3-d]pyrimidin-2(1H)-one]	–	–	–	>5

SMILES	FGFR1/FGFR4 (FGFR4; [1])	FGFR2/FGFR4 (FGFR4; [1])	FGFR3/FGFR4 (FGFR4; [1])	FGFR4/FGFR3 (FGFR3 enzyme)	FGFR1/FGFR4 (FGFR4; [2])	FGFR2/FGFR4 (FGFR4; [2])	FGFR3/FGFR4 (FGFR4; [2])	FGFR1/FGFR3 (FGFR3 enzyme)
COc1cc(OC)c(F)c(N2Cc3cnc(-c4cncc(-n5ccnc5)c4)cc3C3(CC3)C2=O)c1F [Example 12, 6′-(5-(1H-imidazol-1-yl)pyridin-3-yl)-2′-(2,6-difluoro-3,5-dimethoxyphenyl)-1′H-spiro[cyclopropane-1,4′-[2,7]naphthyridin]-3′(2′H)-one]	>50	>25	>10	–	>50	>25	>20	>3
COc1cncc(-c2cc3c(cn2)CN(c2c(F)c(OC)cc(OC)c2F)C(=O)C32CC2)c1 [Example 10, 2′-(2,6-difluoro-3,5-dimethoxyphenyl)-6′-(5-methoxypyridin-3-yl)-1′H-spiro[cyclopropane-1,4′-[2,7]naphthyridin]-3′(2′H)-one]	>25	>25	>10	–	>25	>10	>10	>1
COc1cc(OC)c(F)c(N2Cc3cnc(-c4cncc(F)c4)cc3C3(CC3)C2=O)c1F [Example 5, 2′-(2,6-difluoro-3,5-dimethoxyphenyl)-6′-(5-fluoropyridin-3-yl)-1′H-spiro[cyclopropane-1,4′-[2,7]naphthyridin]-3′(2′H)-one]	>10	>5	>1	–	>10	>5	>4	>3
COc1cc(OC)c(F)c(N2Cc3cnc(-c4cncc(S(=O)(=O)N5CCOCC5)c4)cc3C3(CC3)C2=O)c1F [Example 14, 2′-(2,6-difluoro-3,5-dimethoxyphenyl)-6′-(5-(morpholinosulfonyl)pyridin-3-yl)-1′H-spiro[cyclopropane-1,4′-[2,7]naphthyridin]-3′(2′H)-one]	>50	>10	>1	–	>25	>5	>5	>5
COc1cc(OC)c(F)c(N2Cc3cnc(-c4cncc(C(=O)N5CCOCC5)c4)cc3C3(CC3)C2=O)c1F [Example 13, 2′-(2,6-difluoro-3,5-dimethoxyphenyl)-6′-(5-(morpholine-4-carbonyl)pyridin-3-yl)-1′H-spiro[cyclopropane-1,4′-[2,7]naphthyridin]-3′(2′H)-one]	>50	>25	>10	–	>50	>20	>10	>3
COc1cc(OC)c(F)c(N2Cc3cnc(-c4cncc(N)c4)cc3C3(CC3)C2=O)c1F [Example 4, 6′-(5-aminopyridin-3-yl)-2′-(2,6-difluoro-3,5-dimethoxyphenyl)-1′H-spiro[cyclopropane-1,4′-[2,7]naphthyridin]-3′(2′H)-one]	>25	>10	>10	–	>10	>10	>5	>1
COc1cc(OC)c(F)c(N2Cc3cnc(-c4cncc(Cl)c4)cc3C3(CC3)C2=O)c1F [Example 11, 6′-(5-chloropyridin-3-yl)-2′-(2,6-difluoro-3,5-dimethoxyphenyl)-1′H-spiro[cyclopropane-1,4′-[2,7]naphthyridin]-3′(2′H)-one]	>25	>25	>10	–	>50	>20	>25	>1
